Reference: patent US20100317647A1 (priority 2009, published 2010)

Each compound was assayed against human Cat S (Homo sapiens, UniProt P25774) (assay: Cathepsin enzyme inhibition assay (fluorogenic peptide substrate cleavage)). Conditions: human Cat S 1 nM; substrate Z-Val-Val-Arg-AMC 20 μM; pH 6.5; fluorescence over 20 minutes.
Assay type: biochemical
Procedure, shortened: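 Fluorogenic cleavage of Z-Val-Val-Arg-AMC (20 μM) by 1 nM enzyme in 100 mM potassium phosphate pH 6.5, 5 mM EDTA, 5 mM DTT, 0.001% Triton X-100. Reaction started with substrate; fluorescence (ex 360/em 465 nm) followed over 20 minutes. IC50 by standard methods.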

Sequence of human Cat S (P25774 115-331): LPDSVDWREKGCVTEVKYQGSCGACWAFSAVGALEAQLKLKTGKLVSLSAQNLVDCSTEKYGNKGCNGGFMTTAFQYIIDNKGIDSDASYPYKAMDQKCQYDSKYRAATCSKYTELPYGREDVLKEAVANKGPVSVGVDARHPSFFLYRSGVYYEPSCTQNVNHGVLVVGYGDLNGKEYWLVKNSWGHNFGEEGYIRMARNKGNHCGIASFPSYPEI

SMILES | IC50 [nM]
CO[C@@H]1C[C@H](S(=O)(=O)c2ccc(Cl)cc2Cl)C[C@H]1C(=O)NC1(C#N)CC1 (racemic) [Example 50, (1R,2R,4R) and (1S,2S,4S)-4-(2,4-Dichloro-benzenesulfonyl)-2-methoxy-cyclopentanecarboxylic acid (1-cyano-cyclopropyl)-amide] | 25
Cc1cc(-c2ccc(S(=O)(=O)[C@@H]3C[C@@H](C(=O)NC4(C#N)CC4)[C@H](C(=O)N4CC(F)(F)C4)C3)c(C(F)(F)F)c2)ccn1 [Example 121, (1R,2R,4R)-2-(3,3-Difluoro-azetidine-1-carbonyl)-4-[4-(2-methyl-pyridin-4-yl)-2-trifluoromethyl-benzenesulfonyl]-cyclopentanecarboxylic acid (1-cyano-cyclopropyl)-amide] | 0.2
N#CC1(NC(=O)[C@@H]2C[C@@H](S(=O)(=O)c3ccccc3)C[C@H]2C(=O)N2CCCCC2)CC1 [Example 12, (1R,2R,4R)-4-Benzenesulfonyl-2-(piperidine-1-carbonyl)-cyclopentanecarboxylic acid (1-cyano-cyclopropyl)-amide] | 0.8
CO[C@@H]1C[C@H](S(=O)(=O)c2ccc(-c3nc(C)cs3)cc2C(F)(F)F)C[C@H]1C(=O)NC1(C#N)CC1 (racemic) [Example 61, (1R,2R,4R) and (1S,2S,4S)-2-Methoxy-4-[4-(4-methyl-thiazol-2-yl)-2-trifluoromethyl-benzenesulfonyl]-cyclopentanecarboxylic acid (1-cyano-cyclopropyl)-amide] | 0.3
N#CC1(NC(=O)[C@@H]2C[C@@H](S(=O)(=O)c3ccc(-c4cncc(-c5cnc(Cl)cn5)n4)cc3C(F)(F)F)C[C@H]2C(=O)N2CC(F)(F)C2)CC1 [Example 126, (1R,2R,4R)-4-[4-(5′-Chloro-[2,2]bipyrazinyl-6-yl)-2-trifluoromethyl-benzenesulfonyl]-2-(3,3-difluoro-azetidine-1-carbonyl)-cyclopentanecarboxylic acid (1-cyano-cyclopropyl)-amide] | 0.6
N#CC1(NC(=O)[C@H]2CC[C@@H](S(=O)(=O)c3ccc(OCC(F)(F)F)cc3Cl)C2)CC1 (single isomer, unassigned) [Example 99] | 500
CO[C@@H]1C[C@H](S(=O)(=O)c2ccc(-c3cnccn3)cc2C(F)(F)F)C[C@H]1C(=O)NC1(C#N)CC1 (racemic) [Example 111, (1R,2R,4R) and (1S,2S,4S)-2-Methoxy-4-(4-pyrazin-2-yl-2-trifluoromethyl-benzenesulfonyl)-cyclopentanecarboxylic acid (1-cyano-cyclopropyl)-amide] | 0.4
N#CC1(NC(=O)[C@@H]2C[C@@H](S(=O)(=O)c3ccc(N4CCN(C5CC5)CC4)cc3C(F)(F)F)C[C@H]2C(=O)N2CC(F)(F)C2)CC1 [Example 129, (1R,2R,4R)-4-[4-(4-Cyclopropyl-piperazin-1-yl)-2-trifluoromethyl-benzenesulfonyl]-2-(3,3-difluoro-azetidine-1-carbonyl)-cyclopentanecarboxylic acid (1-cyano-cyclopropyl)-amide] | 0.6
Cc1cc(Cl)ccc1S(=O)(=O)[C@H]1C[C@@H](C(=O)N2CCOCC2)[C@H](C(=O)N2CCC[C@H]2C#N)C1 [Example 44, (S)-1-[(1R,2R,4S)-4-(4-Chloro-2-methyl-benzenesulfonyl)-2-(morpholine-4-carbonyl)-cyclopentanecarbonyl]-pyrrolidine-2-carbonitrile] | 1300
N#CC1(NC(=O)[C@H]2C[C@@H](S(=O)(=O)c3ccccc3Cl)C[C@@H]2O)CC1 (racemic) [Example 52, (1S,2S,4R) and (1R,2R,4S)-4-(2-Chloro-benzenesulfonyl)-2-hydroxy-cyclopentanecarboxylic acid (1-cyano-cyclopropyl)-amide] | 11700
CO[C@@H]1C[C@H](S(=O)(=O)c2ccc(N3CCCCC3)cc2Cl)C[C@H]1C(=O)NC1(C#N)CC1 (racemic) [Example 64, (1R,2R,4R) and (1S,2S,4S)-4-(2-Chloro-4-piperidin-1-yl-benzenesulfonyl)-2-methoxy-cyclopentanecarboxylic acid (1-cyano-cyclopropyl)-amide] | 12
N#CC1(NC(=O)[C@@H]2C[C@@H](S(=O)(=O)c3ccc(Br)cc3C(F)(F)F)C[C@H]2OC2CCC2)CC1 (racemic) [Example 182, (1R,2R,4R) and (1S,2S,4S)-4-(4-Bromo-2-trifluoromethyl-benzenesulfonyl)-2-cyclobutoxy-cyclopentanecarboxylic acid (1-cyano-cyclopropyl)-amide] | 3.8
CCO[C@@H]1C[C@H](S(=O)(=O)c2ccc(-c3ccnc(C)c3)cc2C(F)(F)F)C[C@H]1C(=O)NC1(C#N)CC1 (racemic) [Example 114, (1R,2R,4R) and (1S,2S,4S)-2-Ethoxy-4-[4-(2-methyl-pyridin-4-yl)-2-trifluoromethyl-benzenesulfonyl]-cyclopentanecarboxylic acid (1-cyano-cyclopropyl)-amide] | 0.3
CO[C@@H]1C[C@H](S(=O)(=O)c2ccc(-c3ccnn3C)cc2C(F)(F)F)C[C@H]1C(=O)NC1(C#N)CC1 (racemic) [Example 72, (1R,2R,4R) and (1S,2S,4S)-2-Methoxy-4-[4-(1-methyl-1H-pyrazol-5-yl)-2-trifluoromethyl-benzenesulfonyl]-cyclopentanecarboxylic acid (1-cyano-cyclopropyl)-amide] | 1.2
CO[C@@H]1C[C@H](S(=O)(=O)c2ccc(-c3ccc(F)cn3)cc2C(F)(F)F)C[C@H]1C(=O)NC1(C#N)CC1 (racemic) [Example 30, (1R,2R,4R) and (1S,2S,4S)-4-[4-(5-Fluoro-pyridin-2-yl)-2-trifluoromethyl-benzenesulfonyl]-2-methoxy-cyclopentanecarboxylic acid (1-cyano-cyclopropyl)-amide] | 1
CC(C)CS(=O)(=O)[C@@H]1C[C@@H](C(=O)NCC#N)[C@H](C(=O)N2CCOCC2)C1 [Example 39, (1R,2R,4R)-4-(2-Methyl-propane-1-sulfonyl)-2-(morpholine-4-carbonyl)-cyclopentanecarboxylic acid cyanomethyl-amide] | 445
N#CC1(NC(=O)[C@@H]2C[C@@H](S(=O)(=O)c3ccccc3)C[C@H]2C(=O)N2[C@@H]3CC[C@H]2COC3)CC1 [Example 18, (1R,2R,4R)-4-Benzenesulfonyl-2-((1R,5S)-3-oxa-8-aza-bicyclo[3.2.1]octane-8-carbonyl)-cyclopentanecarboxylic acid (1-cyano-cyclopropyl)-amide] | 2
N#CC1(NC(=O)[C@@H]2C[C@@H](S(=O)(=O)c3ccccc3)C[C@H]2C(=O)N2CCNCC2)CC1 [Example 14, (1R,2R,4R)-4-Benzenesulfonyl-2-(piperazine-1-carbonyl)-cyclopentanecarboxylic acid (1-cyano-cyclopropyl)-amide] | 10.9

Now from value to compound:

IC50 [nM] | SMILES
1.2 | CC(=O)N1CCN(c2ccc(S(=O)(=O)C3CC(C(=O)NC4(C#N)CC4)C(C(=O)N4CC(F)(F)C4)C3)c(C(F)(F)F)c2)CC1 (centres unmarked) [Example 131, 4-[4-(4-Acetyl-piperazin-1-yl)-2-trifluoromethyl-benzenesulfonyl]-2-(3,3-difluoro-azetidine-1-carbonyl)-cyclopentanecarboxylic acid (1-cyano-cyclopropyl)-amide]
2.85 | CO[C@@H]1C[C@H](S(=O)(=O)c2ccc(-c3cnn(CC4(C)COC4)c3)cc2C(F)(F)F)C[C@H]1C(=O)NC1(C#N)CC1 (racemic) [Example 214, (1R,2R,4R) and (1S,2S,4S)-2-Methoxy-4-{4-[1-(3-methyl-oxetan-3-ylmethyl)-1H-pyrazol-4-yl]-2-trifluoromethyl-benzenesulfonyl}-cyclopentanecarboxylic acid (1-cyano-cyclopropyl)-amide]
6.83 | N#CC1(NC(=O)[C@@H]2C[C@@H](S(=O)(=O)c3ccc(F)cc3Cl)C[C@H]2COc2cccnc2)CC1 [Example 165, (1R,2R,4S)-4-(2-Chloro-4-fluoro-benzenesulfonyl)-2-(pyridin-3-yloxymethyl)-cyclopentanecarboxylic acid (1-cyano-cyclopropyl)-amide]
19 | CN1CCC(C#N)(NC(=O)[C@@H]2C[C@@H](S(=O)(=O)c3ccc(Cl)cc3Cl)C[C@H]2OCc2ccc(Cl)cc2)CC1 (racemic) [Example 234, (1R,2R,4R) and (1S,2S,4S)-2-(4-Chloro-benzyloxy)-4-(2,4-dichloro-benzenesulfonyl)-cyclopentanecarboxylic acid (4-cyano-1-methyl-piperidin-4-yl)-amide]
0.2 | Cc1cc(-c2ccc(S(=O)(=O)[C@H]3C[C@@H](OC(C)C)[C@H](C(=O)NC4(C#N)CC4)C3)c(C(F)(F)F)c2)ccn1 (racemic) [Example 140, (1R,2R,4R) and (1S,2S,4S)-2-Isopropoxy-4-[4-(2-methyl-pyridin-4-yl)-2-trifluoromethyl-benzenesulfonyl]-cyclopentanecarboxylic acid (1-cyano-cyclopropyl)-amide]
0.917 | N#CC1(NC(=O)[C@@H]2C[C@@H](S(=O)(=O)c3ccc(Br)cc3C(F)(F)F)C[C@H]2OC2CCCC2)CC1 (racemic) [Example 195, (1R,2R,4R) and (1S,2S,4S)-4-(4-Bromo-2-trifluoromethyl-benzenesulfonyl)-2-cyclopentyloxy-cyclopentanecarboxylic acid (1-cyano-cyclopropyl)-amide]
91 | N#CC1(NC(=O)[C@@H]2C[C@H](S(=O)(=O)c3ccccn3)C[C@H]2C(=O)N2CCC(F)(F)C2)CC1 [Example 228, (1R,2R,4S)-2-(3,3-Difluoro-pyrrolidine-1-carbonyl)-4-(pyridine-2-sulfonyl)-cyclopentanecarboxylic acid (1-cyano-cyclopropyl)-amide]
1.25 | N#CC1(NC(=O)[C@@H]2C[C@@H](S(=O)(=O)c3ccc(F)cc3Cl)C[C@H]2COc2ccc(F)cc2)CC1 (single isomer, unassigned) [Example 145]
